In patent US20060264362A1, “Method of modulating smooth muscle cell functioning by modulating sphingosine kinase mediated signalling” (Medvet Science Pty. Ltd., priority 2003, published 2006):
“Also recorded” adds a separate entry of the source.

Legend:
[1] = system: resistance arteries; experiment: SNP (NO)-induced dilations in preconstricted resistance arteries; type: cell-based, hamsters; settings: for preconstriction level (diameter): 1 μmol/L S1P or 0.3 μmol/L NE
From the text: (§1) The care of the animals and the experimental procedures were in accordance with German animal protection laws. The preparation of the vessels and the technique of calcium (fura 2) and diameter measurements were previously described (Bolz et al., 1999, supra; Bolz S S, Fisslthaler B, Pieperhoff S et al., FASEB J. 2000;14:255-260). Briefly, RA (maximal outer diameter 180-250 μm) from gracilis muscle of female hamsters were cannulated with micropipettes and studied at 45 mmHg transmural pressure. Fura 2 was alternatingly excited at 340 or 380 nm. The ratio F340nm/F380nm at 510 nm was calculated after subtraction of the background fluorescence (obtained after fura 2-quenching with 8 mmol/L MnCl2). Diameters were simultaneously recorded by videomicroscopy at wavelengths>610 nm to avoid interference with fura 2-measurements.
Additionally, dose-response curves for SNP were obtained in arteries preconstricted by 0.3 μmmol/L NE under control conditions, in the presence of the Rho kinase inhibitor Y27632 (1 μmol/L) or in N19RhoA-transfected arteries.
(§2) Dilations are expressed as “% of maximum dilation”=[(diaVD−diaNE)/(diamax−diaNE)]×100, with diaVD and diaNE representing steady state diameters 2 min after administration of […] and diamax being the maximal diameter obtained in Ca^2+-free 1 mmol/L EGTA-containing MOPS buffer.

[2] = system: depolarized resistance arteries; experiment: Apparent Ca2+-sensitivity of depolarized resistance arteries (120 mmol/L K+, Ca2+ex 0-3 mmol/L); type: cell-based, hamsters; settings: for effect on NO (SNP)-induced Ca^2+-desensitization: 10 μmol/L SNP, ODQ 1 μmol/L, calyculin A 120 nmol/L, S1P 10 nmol/L or RhoA^Ala-188 transfection
From the text: as §1
To transfect plasmids containing C3 transferase or the respective mutated RhoA sequences (N19RhoA, RhoA^Ala-188) into VSMCs, arteries were incubated for 18-21 h in a artery culture system (Bolz et al., 2000, supra) with culture medium containing antibiotics, the transfectant Effectene® (16 μl/ml) and 5 μg of the respective plasmid. Unspecific effects of the transfection procedure were assessed by comparing vascular responses of non-transfected RA and arteries transfected with green fluorescent protein (GFP).
The apparent Ca^2+-sensitivity of the arteries was assessed by stepwise increasing the extracellular Ca^2+ concentration (Ca^2+, 0-3 mmol/L) around the arteries kept in depolarizing solution (120 mmol/L K^+). Depolarization-dependent opening of voltage-gated calcium channels allowed increases in Ca^2+ ex to be reproducibly followed by increases in VSMC [Ca^2+]i (Bolz et al., 2000, supra). The Ca^2+-sensitivity was assessed under control conditions, in the presence of SNP and in the combined presence of SNP and the respective modulating substance or protein (ODQ, calyculin A, S1P, RhoA^Ala-188).

[3] = system: isolated resistance arteries; experiment: Resting tone in isolated, transfected resistance arteries; type: cell-based, syrian hamsters; settings: 10 nmol/L
From the text: The preparation of the vessels, the technique of calcium and diameter measurements (Bolz, S. S., de Wit, C., Pohl, U. (1999) Br J Pharmacol 128:124-134) as well as the artery culture and transfection method (Bolz, S. S., Pieperhoff, S., de Wit, C. et al. (2000) Am J Physiol Heart Circ Physiol 279:H1434-H1439) were previously described in more detail. […]
After termination of the culture period resistance arteries were washed with MOPS-buffered salt solution and transferred to an inverted microscope. […] In all 116 arteries included in the study, smooth muscle and endothelial function was assessed by testing all resistance arteries for their constrictor response to norepinephrine (NE 0.3 μmol/L) and their dilator response to acetylcholine (ACh, 1 μmol/L). […]
Tone was calculated as % of maximal diameter [tone(% of diamax)=((diamax−diarest)/diamax)×100] that was determined at the end of every experiment in Ca^2+-free solution under stimulation with 1 μmol/L ACh.

[4] = system: isolated resistance arteries; experiment: Pressure-induced myogenic response (reversal of initial distension), 45 to 110 mmHg; type: cell-based, syrian hamsters
From the text: The preparation of the vessels, the technique of calcium and diameter measurements (Bolz, S. S., de Wit, C., Pohl, U. (1999) Br J Pharmacol 128:124-134) as well as the artery culture and transfection method (Bolz, S. S., Pieperhoff, S., de Wit, C. et al. (2000) Am J Physiol Heart Circ Physiol 279:H1434-H1439) were previously described in more detail. Briefly, segments of small resistance arteries (maximal diameter 213±3 μm, n+116) were excised from the gracilis muscle of female syrian hamsters, cannulated with glass micropipettes and perfused with culture medium at a transmural pressure of 45 mmHg. for selective transfection of smooth muscle cells, 60 μl/mL transfection reagent (Effectene, Qiagen, Germany) and 5 μg of the respective DNA plasmid were added to the organ bath for 20-22 h.
(§3) After termination of the culture period resistance arteries were washed with MOPS-buffered salt solution and transferred to an inverted microscope. Incubation with fura 2 (2 h at 37° C.) from the abluminal side allowed selective determination of smooth muscle Ca^2+ within the vascular wall. Simultaneous measurements of smooth muscle intracellular Ca^2+ and diameter were performed as described previously (Bolz, S. S., de Wit, C., Pohl, U. (1999) supra). In all 116 arteries included in the study, smooth muscle and endothelial function was assessed by testing all resistance arteries for their constrictor response to norepinephrine (NE 0.3 μmol/L) and their dilator response to acetylcholine (ACh, 1 μmol/L). […] Measurements were performed at 37° C.
Myogenic responses were described as % reversal of initial distension (RID) calculated as RID=((diadistended−diatime)/(diadistended−diarest))×100, with diatime being the actual diameter of the artery at a given time point after increase in transmural pressure.
(§4) To compare Ca^2+i and diameter changes over time after application of pressure, a non-linear regression analysis was employed. Briefly, the goodness of the fit to a Gompertz function was calculated for every individual curve at first and then for pooled data sets.

[5] = system: resistance arteries; experiment: S1P-induced vasoconstriction of resistance arteries; type: cell-based, hamsters; settings: for effect on S1P-induced constrictions: S1P <1 μmol/L
From the text: as §1
The technique to transfect intact C3 transferase protein using Trans LT was previously described (Bolz et al., 2000, supra).
Changes in diameter and [Ca^2+]i were continuously recorded in 70 vessels from 41 animals. All vessels studied developed spontaneous tone (9.6±1% of maximal diameter). The viability of each vessel was assessed by its constriction to NE (0.3 μmol/L) and a dilation>80% in response to 1 μmol/L ACh.

[6] = system: MYPT1; experiment: Translocation of MLCP myosin-binding subunit MYPT1 (immunofluorescence, western blot); type: cell-based, hamster
Experimental: (§5) Arteries were fixed with 3.7% formaldehyde, permeabilized with 0.3% Triton X-100, blocked with 1% BSA and incubated with the primary antibody (MLCP: rabbit anti-mouse, 1:200, Covance; RhoA: mouse monoclonal, 1:200, Santa Cruz Biotechnology). FITC-labelled goat anti-rabbit or donkey anti-mouse (1:200, each) were used as secondary antibodies. Images were obtained using a Zeiss LSM410 confocal microscope equipped with a Kr/Ar laser and a 40×/1.2 W water immersion objective.
Tissue samples of hamster aorta were quick-frozen in liquid nitrogen and homogenized. Cytosolic and particulate fractions were separated by centrifugation of the homogenate at 100.000 g (Beckman Coulter, Optima Max-E). Pellets were resuspended in lysis buffer plus 1% Triton-X 100. Protein-matched samples were electrophoresed by SDS-PAGE (7%), transferred to nitrocellulose membranes (Amersham), and subjected to immunostaining using a polyclonal primary antibody (rabbit anti-mouse, 1:500). An HRP-labelled secondary antibody (goat anti-rabbit, 1:10000, Santa Cruz) was used with ECLplus (Amersham) to visualize the signal.

[7] = system: RhoA; experiment: RhoA translocation (immunostaining); type: cell-based, hamsters; settings: 10 nmol/L S1P, 2 min
Experimental: as §5

[8] = system: smooth muscle Ca^2+; experiment: Pressure-induced increases in smooth muscle Ca2+ (fura 2); type: cell-based, syrian hamsters; settings: inhibition of RhoA/Rho kinase pathway
Experimental: as §3, §4

[9] = system: resistance arteries; experiment: Ca2+-dependent dilations induced by ACh or NS1619; type: cell-based, hamsters
From the text: as §1, §2

[10] = S1P 0.001 μmol/L plus named inhibitor
[11] = S1P 0.01 μmol/L plus named inhibitor
[12] = S1P 0.1 μmol/L plus named inhibitor
[13] = S1P 1 μmol/L plus named inhibitor

Compound: NC[C@H](O)c1ccc(O)c(O)c1 [NE, Norepinephrine]
- preconstriction level (diameter) [1]: 128±2 μm

Compound: O=c1onc2cnc3ccccc3n12 [ODQ]
- effect on NO (SNP)-induced Ca^2+-desensitization [2]: blocked; also recorded: completely reversed

Compound: CCCCCCCCCCCCC/C=C/[C@@H](O)[C@@H](N)COP(=O)(O)O [S1P, sphingosine-1-phosphate]
- constriction induced by S1P itself [3]: no significant constrictions
- myogenic response with exogenous S1P ([4]; 10 nmol/L S1P): 144±11 % RID
- S1P-induced vasoconstriction, Control ([5]; S1P 0.001 μmol/L): −0.2 ± 0.4 % of diamax
- S1P-induced vasoconstriction, Control ([5]; S1P 0.01 μmol/L): −7.7 ± 2.4 % of diamax
- S1P-induced vasoconstriction, Control ([5]; S1P 0.1 μmol/L): −27.0 ± 3.4 % of diamax
- S1P-induced vasoconstriction, Control ([5]; S1P 1 μmol/L): −45.0 ± 2.0 % of diamax
- effect on NO (SNP)-induced Ca^2+-desensitization [2]: abolished; also recorded: blocked
- effect of S1P per se on Ca^2+-sensitivity ([2]; S1P 10 nmol/L, Ca^2+ex 0.25-0.75 mmol/L): increased the Ca^2+-sensitivity only in a medium concentration range
- preconstriction level (diameter) [1]: 130±10 μm
- reduction of SNP-induced dilations after preconstriction with S1P vs NE ([1]; SNP 1 μmol/L, preconstriction 1 μmol/L S1P vs 0.3 μmol/L NE): 64±8%
- translocation of MYPT1 to the smooth muscle cell plasmamembrane ([6]; S1P, 2 min): induced a translocation
- RhoA localisation after stimulation [7]: translocated to the membrane; also recorded: translocation to the membrane

Compound: C[C@@H](N)[C@H]1CC[C@H](C(=O)Nc2ccncc2)CC1 [Y27632]
- S1P-augmented myogenic response after blocker ([4]; 10 nmol/L S1P plus Rho kinase inhibitor): 3±1 % RID
- myogenic response, reversal of initial distension (RID) ([4]; pressure 45 to 110 mmHg, steady state after 4 min): 1±2 % RID
- pressure-induced increases in Ca^2+ [8]: 19±3%
- S1P-induced vasoconstriction after inhibition of RhoA or Rho kinase [5, 10]: 0.1 ± 0.4 % of diamax
- S1P-induced vasoconstriction after inhibition of RhoA or Rho kinase [5, 11]: −0.4 ± 0.2 % of diamax
- S1P-induced vasoconstriction after inhibition of RhoA or Rho kinase [5, 12]: −3.4 ± 1.8 % of diamax
- S1P-induced vasoconstriction after inhibition of RhoA or Rho kinase [5, 13]: −20.0 ± 7.2 % of diamax
- effect on S1P-induced constrictions [5]: abolished
- effect on NO-induced dilations ([1]; NE 0.3 μmol/L-preconstricted, Y27632 1 μmol/L or N19RhoA overexpression): significantly augmented
- diameter at NE-induced tone ([1]; NE 0.3 μmol/L, Y27632 1 μmol/L): 115±5 μm
- resting diameter ([1]; Y27632 1 μmol/L): 195±18 μm
- S1P-induced MYPT1 translocation after RhoA/Rho kinase inhibition ([6]; N19RhoA-transfected or Y27632 (1 μmol/L)-pretreated arteries): absent

Compound: COC[C@@H]([C@H](O)[C@H](O)C(=O)NCC[C@H](C)c1nc(/C=C/C[C@@H]2O[C@]3(C[C@@H](O)[C@@H]2C)O[C@H]([C@H](C[C@H](O)[C@H](C)[C@H](O)[C@H](C)/C=C(C)/C(C)=C/C=C/C(C)=C\C#N)OC)[C@H](OP(=O)(O)O)C3(C)C)co1)N(C)C [calyculin A]
- effect on NO (SNP)-induced Ca^2+-desensitization [2]: reversed
- effect on NO (SNP)-induced Ca^2+-desensitization ([2]; listed as Calyculin A): almost abolished

Compound: C3 transferase
- S1P-induced vasoconstriction after inhibition of RhoA or Rho kinase [5, 10]: 0.7 ± 0.3 % of diamax
- S1P-induced vasoconstriction after inhibition of RhoA or Rho kinase [5, 11]: 0.5 ± 0.6 % of diamax
- S1P-induced vasoconstriction after inhibition of RhoA or Rho kinase [5, 12]: −2.8 ± 0.7 % of diamax
- S1P-induced vasoconstriction after inhibition of RhoA or Rho kinase [5, 13]: −18.1 ± 2.9 % of diamax
- effect on S1P-induced constrictions [5]: abolished
- Ca^2+/diameter curve (Ca^2+-sensitivity of the contractile apparatus) ([2]; C3 transferase-transfected arteries): significantly shifted to the right; also recorded: significantly desensitized

Compound: charybdotoxin
- effect on dilations by ACh (+L-NA/indomethacin) and NS1619 [9]: abolished
